Earlier results as cited in article PMC7674238 (Accounts of chemical research, 2020).
Where two headings read alike, the source gives them in different places.

What was measured:
[1] = tested on: VanA VRE; conditions: vancomycin-resistant organisms
[2] = tested on: D-Ala-D-Lac; conditions: D-Ala-D-Lac vs D-Ala-D-Ala
[3] = tested on: vancomycin-resistant S. aureus (VRSA) strain VRS-2; conditions: for dose-dependent bactericidal effect, rank order (relative to 2 h baseline): n=5/dose
[4] = tested on: VanA VRE
[5] = tested on: VanA VRE; conditions: 10 μM
[6] = mice
[7] = mice, iv

Row | SMILES | loss in antimicrobial activity (resistance) [1] [fold] | loss in binding affinity between vancomycin and its target [2] [fold] | dose-dependent bactericidal effect, rank order (relative to 2 h baseline) [3] | resistance development on 50-day serial exposure [4] | reduction in bacteria count ([3]; VanA VRSA, VRS2, without dosing optimization) [log10] | induction of bacteria cell permeabilization [5] | Maximum tolerated dose (MTD) ([6]; iv) [mg/kg] | tolerability [6] | AUC ([7]; 10 mg/kg) [µg·h/mL] | CL ([7]; 10 mg/kg) [mL/min/kg] | Cmax ([7]; 10 mg/kg) [ng/mL] | Vd ([7]; 10 mg/kg) [L/kg] | t1/2 ([7]; 10 mg/kg) [h] | AUC ([7]; 50 mg/kg (MTD)) [µg·h/mL] | CL ([7]; 50 mg/kg (MTD)) [mL/min/kg] | Cmax ([7]; 50 mg/kg (MTD)) [ng/mL] | Vd ([7]; 50 mg/kg (MTD)) [L/kg] | t1/2 ([7]; 50 mg/kg (MTD)) [h]
1 | CN[C@H](CC(C)C)C(=O)N[C@H]1C(=O)N[C@@H](CC(N)=O)C(=O)N[C@H]2C(=O)N[C@H]3C(=O)N[C@H](C(=O)N[C@H](C(=O)O)c4cc(O)cc(O)c4-c4cc3ccc4O)[C@H](O)c3ccc(c(Cl)c3)Oc3cc2cc(c3O[C@@H]2O[C@H](CO)[C@@H](O)[C@H](O)[C@H]2O[C@H]2C[C@](C)(N)[C@H](O)[C@H](C)O2)Oc2ccc(cc2Cl)[C@H]1O [compound 1, vancomycin] | 1000 | 1000 | 32 > 26 ≥ 16 > linezolid > 1 | – | – | – | – | – | – | – | – | – | – | – | – | – | – | –
2 | CN[C@H](CC(C)C)C(=O)N[C@H]1C(=O)N[C@@H](CC(N)=O)C(=O)N[C@H]2C(=O)NC3C(=O)N[C@H](C(=O)N[C@H](C(=O)NCCC[N+](C)(C)C)c4cc(O)cc(O)c4-c4cc3ccc4O)[C@H](O)c3ccc(c(Cl)c3)Oc3cc2cc(c3OC2OC(CO)C(O)[C@H](O)[C@@H]2O[C@H]2CC(C)(NCc3ccc(-c4ccc(Cl)cc4)cc3)[C@H](O)[C@H](C)O2)Oc2ccc(cc2Cl)[C@H]1O (stereo partly shown) [compound 26, C1-CBP-vancomycin] | – | – | – | much more muted changes in potency | ~3 | more significant | ≥ 50 | well tolerated in mice | 81.1 | 2 | 14100 | 1.25 | 7.0 | 430 | 2 | 58900 | 1.04 | 6.2
3 | CC(=O)NC[C@H]1CN(c2ccc(N3CCOCC3)c(F)c2)C(=O)O1 [linezolid] | – | – | 32 > 26 ≥ 16 > linezolid > 1 | – | – | – | – | – | – | – | – | – | – | – | – | – | – | –
